Experimental data taken from patent publication US9376406B2, “uPAR-uPA interaction inhibitors and methods for treating cancer” (Indiana University Research and Technology Corporation, priority 2011, dated 2016).
Entries after “also recorded” stand apart in the source; their conditions may differ.

Key:
uPAR [1] = target: T1, uPAR (Homo sapiens, UniProt Q03405); assay: Fluorescence polarization, direct binding to uPAR
T1 construct: uPAR comprising amino acids 1-277 was expressed in Drosophila S2 cells; made in house; host or cells: Drosophila S2 cells
T1 sequence (Q03405 23-299): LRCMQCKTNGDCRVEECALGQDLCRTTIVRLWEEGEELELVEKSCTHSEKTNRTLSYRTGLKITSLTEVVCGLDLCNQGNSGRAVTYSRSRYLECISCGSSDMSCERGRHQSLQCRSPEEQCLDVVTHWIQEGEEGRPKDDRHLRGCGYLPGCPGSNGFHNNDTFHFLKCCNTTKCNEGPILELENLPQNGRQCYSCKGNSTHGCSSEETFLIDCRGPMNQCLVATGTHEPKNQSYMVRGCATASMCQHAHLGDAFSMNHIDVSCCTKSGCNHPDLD
Experimental: Fluorescence polarization in the presence and absence of protein and were measured using identical conditions as described above.
The mP was evaluated in the a presence and absence of competing 10 μM GFD.

MDA-MB-231 cells [2] = assay: Wound healing assay; format: cell-based; settings: Homo sapiens; MDA-MB-231, wound healing; read-out: migration IC50
Experimental: (§1) Wound Healing Assay. Confluent cell monolayers in 12-well plates were wounded by scraping with a micropipette tip. The cells were washed and then cultured in complete media containing the compounds. The degree of wound closure was assessed in three randomly chosen regions by measuring the distance between the wound edges just after wounding and after 16 h under Nikon Diaphot 300 microscope.
(§2) Without being bound by theory, it is believed that, to invade neighboring tissue, cells must acquire additional motility, although invasion and migration may proceed through different mechanisms. […] The first uses the Boyden chamber apparatus to assess the effect of compound on migration primarily mediated by chemotaxis. […] The other approach to test for effects on migration was the wound healing assay, which probes migration mediated by a concentration gradient established by the wound. It is also not as sensitive to potential cytotoxic effects.

H1299 cells [3] = assay: Wound healing assay; format: cell-based; settings: Homo sapiens, NCI-H1299, read-out: migration IC50
Experimental: as §1, §2

uPAR [4] = target: T1, uPAR; assay: Fluorescence polarization assay, displacement of GFD-FAM; format: binding; settings: displacement of GFD-FAM from uPAR
Experimental: Fluorescence Polarization Assay. […] Polarized fluorescence intensities were measured immediately following addition of inhibitors to the protein-peptide mix at room temperature on an EnVision® Multilabel Plate Readers (PerkinElmer) with excitation and emission wavelengths of 485 and 530 nm, respectively.
Fluorescence Polarization Screening to Identify Hit Compounds. To identify compounds that bind to uPAR at the GFD binding site, a fluorescent polarization assay is conceived with a probe that consists of labeling GFD with fluorescein at its N-terminus (GFD-FAM). […] Using this assay, all compounds that emerge from the computational screening are tested initially at a single concentration of 50 μM. The compounds showing the highest reduction in polarization are subjected to activity confirmation.

uPAATF binding to uPAR = target: T2, uPAATF binding to uPAR (Homo sapiens, UniProt Q03405); assay: Microtiter-based uPAATF ELISA; settings: inhibition of uPAATF binding to uPAR
T2 construct: uPAR comprising amino acids 1-277 was expressed in Drosophila S2 cells; made in house; host or cells: Drosophila S2 cells (uPAR)
T2 sequence (Q03405 23-299): as above
Experimental: Microtiter-Based ELISA. The competition-binding assays were performed by incubating the proteins with inhibitors prior to binding to the immobilized proteins. Medium to high-binding microplates were coated and incubated for 1 hour at 4° C. with 100 μL of 2 μg/mL of uPAATF in 1×PBS for immobilization. A 1:1 mixture of Superblock® buffer in PBS (Thermoscientific) with 0.04 M NaH2PO4 and 0.3 M NaCl buffer were used for blocking Following the incubation and washing steps, uPA1310 biotinylated antibody (R&D Systems, MN) in 1% BSA 1×PBS buffer (100 μL/well) was added to the wells and incubated for 1-2 hours to allow for the detection of bound uPAR. In the presence of streptavidin-peroxidase and hydrogen peroxide signal was detected on an EnVision® Multilabel Plate Readers (PerkinElmer).

MDA-MB-231 cells [5] = assay: Adhesion assay; format: cell-based, human; settings: MDA-MB-231, fibronectin- and vitronectin-coated wells
Experimental: (§3) Adhesion Assay. 96-well plates were coated with 15 ng/μl fibronectin (Sigma, St. Louis, Mo.) at 4° C. overnight, then blocked with 0.5% BSA in PBS for 1 h. After starving with serum-free medium for 3 h, H1299 or MDA-MB-231 (2.5×10^5 cells/ml) were trypsinized and suspended in 100 μl of 0.1% FBS medium with various concentrations of uPAR compounds or DMSO control at 37° C. for 90 min. Medium was then carefully suctioned out from each well. Each well was washed three times with PBS. MTT-assay was used to determine the number of remaining cells (adherent cells).
(§4) The numbers of attached cells were quantified by MTT assay. Adherent cells are also quantified with fluorescence. […] The lack of inhibition was found both on fibronectin- and vitronectin-coated wells.

H1299 cells [6] = assay: Adhesion assay; format: cell-based, human; settings: H1299, fibronectin- and vitronectin-coated wells
Experimental: as §3, §4

MDA-MB-231 cells [7] = assay: Invasion assay (Matrigel invasion chamber); format: cell-based, human
Experimental: (§5) Invasion Assay. Invasion assays are performed using the Biocoat Matrigel invasion chamber (BD Biosciences, Bedford, Mass.) according to the manufacturer's protocol. The undersurface of the inserts were coated with 30 ng/μl of fibronectin at 4° C. overnight. The filters were equilibrated with 0.5 ml serum-free medium for 2 h. After 4 h of serum starvation, cells were harvested and 5×10^4 cells/500 μl were plated onto the upper chamber of a Transwell filter in medium containing 0.1% FBS and the indicated compounds. 500 μl of 10% FBS medium containing the same amount of compounds or DMSO control were added to the lower chamber. After a 24 h incubation at 37° C. in 5% CO2, the filters were fixed and the number of cells that had invaded was determined as described for the migration assay.
(§6) Testing of the effects of IPR-465 on processes critical for metastasis in cell culture, starting with invasion, was undertaken. A Boyden chamber apparatus was used and results are shown in FIG. 3(a), where the bar groups correspond, from left to right, to H1299 invasion, H1299 cytotoxicity, MDA-MB-231 invasion, MDA-MB-231 cytotoxicity, and in FIG. 3(b), where the bar groups correspond, from left to right, to H1299 Boyden Chamber, H1299 wound healing, H1299 cytotoxicity, MDA-MB-231 Boyden Chamber, MDA-MB-231 wound healing, MDA-MB-231 cytotoxicity.
(§7) Ten fields of unit area on each membrane were counted for cell numbers (magnification, 200×). […] The effect of the compound appears to be more pronounced in MDA-MB-231 cells compared with H1299. The level of toxicity of the compounds is measured at each concentration within the timescale of the invasion experiment to ensure that the observed effects are not due to cytotoxicity (FIG. 3(a)).
(§8) MDA-MB-231 cells were transfected with siRNAs for uPAR, control siRNA (control) or with transfection reagent only (mock). After 48 h, cells were lysed and analysed by immunoblotting.

H1299 cells [8] = assay: Invasion assay (Matrigel invasion chamber); format: cell-based, human
Experimental: as §5, §6, §7, §8

Which results are given for `CC1CC(C)CN(c2cc(Nc3ccccc3C(=O)O)c3c4c(onc24)-c2ccccc2C3=O)C1` (stereo not drawn) [IPR-456]?
Kd (uPAR [1]; direct binding to uPAR by fluorescence polarization): 0.312 µM; fluorescence polarization (mP) with increasing uPAR concentration (uPAR [1]; excitation 530 nm, emission 600 nm): showed a dose response with increasing mP; change in polarization with increasing uPAR (uPAR [1]; in the presence of 10 μM competing GFD): no change in the polarization was detected; IC50 (MDA-MB-231 cells [2]): ~150 µM; IC50 (H1299 cells [3]): ~150 µM; Ki (uPAR [4]): 4 µM; IC50 (uPAATF binding to uPAR): ~10 µM; cell adhesion (MDA-MB-231 cells [5]): no effect on cell adhesion; also recorded: lack an effect; cell adhesion (H1299 cells [6]): no effect on cell adhesion; also recorded: lack an effect; IC50 (MDA-MB-231 cells [7]; Homo sapiens, MDA-MB-231): ~50 µM; number of cells able to invade through the membrane (MDA-MB-231 cells [7]; MDA-MB-231): dose-dependent reduction; influence on invasion (MDA-MB-231 cells [7]; MDA-MB-231 with siRNA knockdown of uPAR): no additional influence on invasion; number of cells able to invade through the membrane (H1299 cells [8]; H1299): dose-dependent reduction; influence on invasion (H1299 cells [8]; H1299 with siRNA knockdown of uPAR): no additional influence on invasion; IC50 (H1299 cells [8]; Homo sapiens, NCI-H1299): ~50 µM
